How the values were obtained:
Format in all cases: cell-based, Saccharomyces cerevisiae
[1] = tested on: gene-disrupted strain DEL002 (YDR027C) transformed with a plasmid p-YBR072W; experiment: promoter assay (GFP reporter), Example 2; settings: GFP fluorescence 4 hours after loading, parent strain BY4743
Experimental: (§1) In a gene-disrupted strain, a growing rate becomes small so much, or medium components in which the strain can be grown are different in some cases, depending on a disrupted gene. Then, in the present experiment studying a host cell of a promoter assay method, in view of easy comparison with a control experiment, among gene-disrupted strains obtained as the result of Example 1, a few strains which have sensitivity to many chemicals and are grown by the same procedure as that of a parent strain were selected. Selected gene-disrupted strains are 8 strains of DEL000, DEL002, DEL011, DEL014, DEL016, DEL019, DEL022 and DEL025 in Table 7. Further, as a control, a parent strain, BY4743 was used.
(§2) A competent cell of each of a parent strain of a gene-disrupted strain and selected gene-disrupted strains was prepared. This competent cell was transformed using two kinds of prepared plasmids for promoter assay, p-YBR072W (in which GFP was connected understream of a promoter of YBR072W) and p-YPL171C (in which GFP was connected downstream of a promoter of YPL171C).
(§3) The resulting transformant was grown to the steady state by shaking-culturing on a SD medium (histidine, leucine) at 25° C. The transformant in the steady state was diluted 500-fold with the same medium, shaking-cultured at 25° C. for 15 hours and, after it was confirmed that an absorbance at 600 nm was 0.2 to 0.5 as a logarithmic growth phase, chemicals having different concentrations were loaded. After loading of chemicals, fluorescence of cells which had been cultured for 4 hours was measured using a flow cytometer (FITC filter, EPICS XL-MCL, Bechmancoulter), and this was adopted as an expression amount of GFP (green fluorescence protein) which is a marker gene. A fluorescence intensity of 10000 cells was measured with a flow cytometer by one measurement and an average of fluorescence intensities of all cells was obtained, and was adopted as a measured value. Similarly, a fluorescence intensity of a cell to which a chemical had not been loaded was obtained, and results are shown as a fluorescence intensity ratio.

[2] = tested on: gene-disrupted strain DEL025 (YLR311C) transformed with a plasmid p-YBR072W; experiment: promoter assay (GFP reporter), Example 2; settings: strain printed DEL, p-YBR072W, GFP fluorescence 4 hours after loading, parent strain BY4743
Experimental: as §1, §2, §3

[3] = tested on: gene-disrupted strain DEL011 (YGL240W) transformed with a plasmid p-YBR072W; experiment: promoter assay (GFP reporter), Example 2; settings: GFP fluorescence 4 hours after loading, parent strain BY4743
Experimental: as §1, §2, §3

[4] = tested on: gene-disrupted strain DEL019 (YIL036W) transformed with a plasmid p-YBR072W; experiment: promoter assay (GFP reporter), Example 2; settings: strain printed DEL019025, p-YBR072W, GFP fluorescence 4 hours after loading, parent strain BY4743
Experimental: as §1, §2, §3

[5] = tested on: gene-disrupted strain DEL016 (YCR028C) transformed with a plasmid p-YBR072W; experiment: promoter assay (GFP reporter), Example 2; settings: GFP fluorescence 4 hours after loading, parent strain BY4743
Experimental: as §1, §2, §3

[6] = tested on: gene-disrupted strain DEL016 (YCR028C) transformed with a plasmid p-YPL171C; experiment: promoter assay (GFP reporter), Example 2; settings: GFP fluorescence 4 hours after loading, parent strain BY4743
Experimental: as §1, §2, §3

[7] = tested on: gene-disrupted strain DEL011 (YGL240W) transformed with a plasmid p-YPL171C; experiment: promoter assay (GFP reporter), Example 2; settings: GFP fluorescence 4 hours after loading, parent strain BY4743
Experimental: as §1, §2, §3

[8] = tested on: gene-disrupted strain DEL014 (YJR104C) transformed with a plasmid p-YBR072W; experiment: promoter assay (GFP reporter), Example 2; settings: GFP fluorescence 4 hours after loading, parent strain BY4743
Experimental: as §1, §2, §3

[9] = tested on: homozygous diploid of gene-disrupted strain DEL022 (YLR226W) transformed with a plasmid p-YPL171C; experiment: promoter assay (GFP reporter), Example 3; settings: W303 background
From the text: (§4) In order to prepare a gene-disrupted strain transformation cassette, genes having chemical sensitivity; YPR036W(DEL000), YDL151C(DEL001), YGL026C(DEL003), YHR039C-A(DEL006), YKL080W(DEL007), YLR447C(DEL008), YGR006W(DEL012), YGR105W(DRL013), YJR104C(DEL014), YGL206C(DEL018), YIL036W(DEL019), YKL119C(DEL020), YLR226W(DEL022) and YLR311C(DEL025) in Table 7 were selected, and each gene was replaced with a transformation marker such as kanamycin resistance. As primers for performing PCT amplification, a N-terminal side (ORF(upper)) and a C-terminal side (ORF(lower)) in each ORF were used. A length of a sequence (ORF(upper) and ORF(lower)) of a primer homologues with ORF was 46 or 50 bp.
(§5) A W303 a mating type (ATCC200903) and a W303α mating type (ATCC201238) in which the same gene was gene disruption-manipulated were mated by a mating procedure (Yeast Gene Experimental Manual: Maruzen Co., Ltd., p 83-92) to prepare homozygous diploids. Separately, mating of a W303a mating type, and a non-gene-disrupted W303α type was performed by the similar procedure to prepare heterozygous diploids.
(§6) By such the procedure, homozygous diploids of DEL000, DEL001, DEL003, DEL006, DEL007, DEL008, DEL012, DEL013, DEL014, DEL018, DEL019, DEL020, DEL022 and DEL025 in Table 7 were prepared. In addition, heterozygous diploids in which DEL006, DEL014 and DEL 022 were mated with a non-gene-disrupted strain (hereafter, referred to as DEL006 heterozygous diploid, DEL 014 heterozygous diploid, DEL022 heterozygous diploid) and, further, a heterozygous diploid in which DEL000 and DEL014 were mated (hereafter, referred to as DEL000/014 heterozygous diploid) were prepared.
(§7) Competent cells of W303 ATCC201239 (MATa/MATα leu2-3/leu2-3 leu2-112/leu2-112 trp1-1/trp1-1 ura3-1/ura3-1 his 3-11/his3-11 his3-15/his3-15 ade2-1/ade2-1 can1-100/can1-100) which is a parent strain of gene-disrupted strains, and each of prepared gene-disrupted strains were prepared. The competent cells were transformed using two kind of prepared plasmid for promoter assay, p-YBR072W (in which GFP is connected downstream of a promoter of YBR072W) and p-YPL171C (in which GFP is connected downstream of a promoter of YPL171C).
(§8) The resulting transformant was grown to the steady state by shaking-culturing on a SD medium (adenine, hystidine, triptophan, leucine) at 25° C. The transformant in the steady state was diluted 500-fold with the same medium, shaking-cultured at 25° C. for 15 hours and, after it was confirmed that an absorbance at 600 nm was 0.2 to 0.5 as a logarithmic growth phase, chemicals having different concentrations were loaded. After loading of chemicals, fluorescence of cells which had been cultured for 4 hours was measured using a flow cytometer (FITC filter, EPICS XL-MCL, Bechmancoulter), and this was adopted as an expression amount of GFP (green fluorescence protein) which is a marker gene. A fluorescence intensity of 10000 cells was measured with a flow cytometer by one measurement and an average of fluorescence intensities of all cells was obtained, and was adopted as a measured value. Similarly, a fluorescence intensity of a cell to which a chemical had not been loaded was obtained, and results are shown as difference in a fluorescence intensity.

[10] = tested on: homozygous diploid of gene-disrupted strain DEL003 (YGL026C) transformed with a plasmid p-YPL171C; experiment: promoter assay (GFP reporter), Example 3; settings: W303 background
From the text: as §4, §5, §6, §7, §8

[11] = tested on: homozygous diploid of gene-disrupted strain DEL014 (YJR104C) transformed with a plasmid p-YPL171C; experiment: promoter assay (GFP reporter), Example 3; settings: W303 background
From the text: as §4, §5, §6, §7, §8

[12] = tested on: heterozygous diploid DEL000/014 transformed with a plasmid p-YPL171C; experiment: promoter assay (GFP reporter), Example 3; settings: heterozygous diploid DEL000/014, p-YPL171C, W303 background
From the text: as §4, §5, §6, §7, §8

[13] = tested on: homozygous diploid of gene-disrupted strain DEL006 (YHR039C-A) transformed with a plasmid p-YPL171C; experiment: promoter assay (GFP reporter), Example 3; settings: W303 background
From the text: as §4, §5, §6, §7, §8

[14] = tested on: homozygous diploid of gene-disrupted strain DEL008 (YLR447C) transformed with a plasmid p-YPL171C; experiment: promoter assay (GFP reporter), Example 3; settings: W303 background
From the text: as §4, §5, §6, §7, §8

[15] = tested on: homozygous diploid of gene-disrupted strain DEL020 (YKL119C) transformed with a plasmid p-YPL171C; experiment: promoter assay (GFP reporter), Example 3; settings: DEL0020 homozygous diploid, W303 background
From the text: as §4, §5, §6, §7, §8

[16] = tested on: heterozygous diploid of gene-disrupted strain DEL006 (YHR039C-A) transformed with a plasmid p-YPL171C; experiment: promoter assay (GFP reporter), Example 3; settings: W303 background
From the text: as §4, §5, §6, §7, §8

[17] = tested on: homozygous diploid of gene-disrupted strain DEL007 (YKL080W) transformed with a plasmid p-YPL171C; experiment: promoter assay (GFP reporter), Example 3; settings: W303 background
From the text: as §4, §5, §6, §7, §8

[18] = tested on: homozygous diploid of gene-disrupted strain DEL001 (YDL151C) transformed with a plasmid p-YPL171C; experiment: promoter assay (GFP reporter), Example 3; settings: W303 background
From the text: as §4, §5, §6, §7, §8

In the case of `[Cl][Cd][Cl]` [cadmium chloride], the “concentration at which the strain responded, as fraction of a concentration of a parent strain” value [1] is reported as 1/3, the “concentration at which the strain responded, as fraction of a concentration of a parent strain” value [2] is reported as 1/3 and the “concentration at which the strain responded, as fraction of a concentration of a parent strain” value [3] is reported as 1/3. The “concentration at which the strain responded, as fraction of a concentration of a parent strain” value [4] was 1/3 and the “concentration at which the strain responded, as fraction of a concentration of a parent strain” value [5] was 1/3.

`[Cl][Hg][Cl]` [mercuric chloride] was tested, and the “concentration at which the strain responded, as fraction of a concentration of a parent strain” value [6] was 1/3 and the “concentration at which the strain responded, as fraction of a concentration of a parent strain” value [7] was 1/10.

With `O=[As][O-].[Na+]` [sodium metaarsenite] the “concentration at which the strain responded, as fraction of a concentration of a parent strain” value [3] was 1/10, the “concentration at which the strain responded, as fraction of a concentration of a parent strain” value [8] was 1/3000 and the “concentration at which the strain responded, as fraction of a concentration of a parent strain” value [5] was 1/3. For the same compound, the “concentration at which the strain responded, as fraction of a concentration of a parent strain” value [7] was 1/3, the “concentration at which sensitivity is shown, as fraction of a concentration of a gene-non-disrupted strain” value [9] was 1/3 and the “concentration at which sensitivity is shown, as fraction of a concentration of a gene-non-disrupted strain” value [10] was 1/3. For the same compound, the “concentration at which sensitivity is shown, as fraction of a concentration of a gene-non-disrupted strain” value [11] was 1/30, the “concentration at which sensitivity is shown, as fraction of a concentration of a gene-non-disrupted strain” value [12] was 1/30 and the “concentration at which sensitivity is shown, as fraction of a concentration of a gene-non-disrupted strain” value [13] was 1/30. The “concentration at which sensitivity is shown, as fraction of a concentration of a gene-non-disrupted strain” value [14] was 1/3.

In the case of `CN(C)C(=S)SSC(=S)N(C)C` [thiuram], the “concentration at which sensitivity is shown, as fraction of a concentration of a gene-non-disrupted strain” value [9] is reported as 1/1000, the “concentration at which sensitivity is shown, as fraction of a concentration of a gene-non-disrupted strain” value [13] is reported as 1/10 and the “concentration at which sensitivity is shown, as fraction of a concentration of a gene-non-disrupted strain” value [15] is reported as 1/3. The “concentration at which sensitivity is shown, as fraction of a concentration of a gene-non-disrupted strain” value [16] was 1/10, the “concentration at which sensitivity is shown, as fraction of a concentration of a gene-non-disrupted strain” value [17] was 1/1000 and the “concentration at which sensitivity is shown, as fraction of a concentration of a gene-non-disrupted strain” value [18] was 1/3.

Reference: patent US8173387B2, “Method of examining chemical using gene-disrupted strain” (priority 2003, dated 2012)
